“Also recorded” adds a separate entry of the source. Counter-ions that a name gives are not always drawn.
Tests used:
RTT spheroids = experiment: FLIPR spontaneous calcium oscillation assay of iPSC-derived cortical brain spheroids (SMART library screen); format: cell-based, human; details: for outcome of the SMART library screen (multivariant analysis): 298-compound SMART library on WT and RTT matured spheroids; for rescue or reversal of the RTT disease state, multi parametric plot of spheroid calcium oscillation activity / effect of the drugs on the condition (spontaneous calcium oscillations): 1 micro molar; for rescue or reversal of the RTT disease state, multi parametric plot of spheroid calcium oscillation activity: FIG. 3 and FIG. 4, compared with WT spheroids; for effect of the drugs on the condition (spontaneous calcium oscillations): WT and RTT spheroids, FIG. 4
Source text: In one embodiment, the present disclosure provides human induced pluripotent stem cells iPScs that are subsequently differentiated into human cortical neurons comprising neurons and astrocytes in approximately a 50:50 ratio. The ratio can be adjusted on a case by case basis depending on the particular disease of interest from 1 to 99% either neurons or astrocytes. The 3D spheroids are comprised of approximately 50:50 neurons to astrocytes ratio +1-10%. The methods of differentiating and forming 3 dimensional spheroids and functional testing with FLIPR optical techniques is described in copending patent application No. 62/532667. In the examples in this invention we use a disease model cell line which are known to carry genes responsible for Rett syndrome.
In the present disclosure both Wild Type (WT) and Rett Disease (RTT) cortical brain human tissue spheroids were prepared for the purpose of high throughput screening to identify therapeutic compounds that can modulate the brain activity in an attempt to revert or rescue the disease state back to near normal activity or homeostasis. For example, the cell lines employed (control or “WT” and disease “RTT”) may be from a family without and with the Rett disease phenotype.
The method disclosed herein may, in one embodiment, include manufacturing 3D spheroids in 384 well round bottom microtiter plates, see, e.g. U.S. patent application No. 62/532,667, the disclosure of which is incorporated herein. […] In the present disclosure, 6 to 14 weeks of maturation is a maturation range for testing, e.g., 8 to 10 weeks of maturation.
The oscillations being measured are from calcium flux moving into and out of the cells at ambient conditions. The oscillations are spontaneous and not generated by an external source. The measurements are conducted in real time and the data captured by using a technique called FLIPR that is well known in the prior art. […] When analyzing the data, it is important to understand that multiple factors contribute to the signal being recorded by the FLIPR software. Therefore, in the present disclosure 7 parameters are recorded to determine if the data generated from the spheroid is meaningful. The parameters measured are, e.g., peak count, peak width, average peak spacing, peak spacing standard deviation, peak decay time, peak rise time, and/or peak amplitude.
In the present disclosure, the SMART library that contained 298 compounds was used on both WT and RTT matured spheroids over several weeks and the FLIPR data collected and analyzed for potential therapeutic efficacy. The SMART (Selected Molecular Agents for Rett Therapy) library of compounds is well vetted by modern day bioinformatics methods, tightly focused on Rett syndrome and its biological causes. The library is currently housed at the University of Illinois-Chicago. […] With the goals in mind to save both time and resources and accelerate drug discovery for Rett syndrome, the compounds in the SMART library are readily available to investigators working on Rett syndrome research.

pregnant rats = details: given to pregnant rats; cited from earlier work
pregnant mice = details: given to pregnant mice; cited from earlier work
humans = details: 1950s and 1960s; cited from earlier work

Row | Structure (SMILES) | outcome of the SMART library screen (multivariant analysis) (RTT spheroids) | further results
1 | CC(=O)Nc1nnc(S(N)(=O)=O)s1 [Acetazolamide] | therapeutics of interest | –
2 | CNCC[C@@H](Oc1ccccc1C)c1ccccc1 [Atomoxetine, Atomoxetine (Tomoxetine)] | therapeutics of interest | –
3 | CC(C)n1c(=O)n(C(=O)NC2CC3CCC(C2)N3C)c2ccccc21 (stereo not shown) [BIMU-8] | therapeutics of interest | rescue or reversal of the RTT disease state, multi parametric plot of spheroid calcium oscillation activity (RTT spheroids; RTT spheroids): significant effect on reversing or rescuing the RTT disease state; rescue of spontaneous calcium peak frequency and amplitude behavior to the WT state (RTT spheroids; RTT spheroids, 2-week exposure time, FIG. 5): rescuing the oscillation activity back to WT normal behavior; also recorded: nearly rescued the WT state
4 | NCC(CC(=O)O)c1ccc(Cl)cc1 (stereo not shown) [Baclofen] | therapeutics of interest | –
5 | OC(CCN1CCCCC1)(c1ccccc1)C1CCCCC1 (stereo not shown) [Benzhexol Hydrochloride] | therapeutics of interest | –
6 | CN(C)CCCOc1nn(Cc2ccccc2)c2ccccc12.Cl [Benzydiamine Hydrochloride] | therapeutics of interest | –
7 | OC(CCN1CCCCC1)(c1ccccc1)C1CC2C=CC1C2 (stereo not shown) [Biperiden] | therapeutics of interest | –
8 | O=C1Nc2cc(Br)ccc2/C1=C1/Nc2ccccc2/C1=N\O [Bromoindirubin-3-oxime] | therapeutics of interest | –
9 | COc1cc(N)c(Cl)cc1C(=O)NC1CCN(Cc2ccccc2)CC1 [Clebopride Mal ate] | therapeutics of interest | –
10 | CN1CCC[C@@H]1Cc1c[nH]c2ccc(CCS(=O)(=O)c3ccccc3)cc12 [Eletriptan HBr Salt] | therapeutics of interest | –
11 | Oc1cc(O)c2c(c1)O[C@H](c1cc(O)c(O)c(O)c1)[C@H](O)C2 [Epigallocatechin] | – | rescue or reversal of the RTT disease state, multi parametric plot of spheroid calcium oscillation activity (RTT spheroids; RTT spheroids): no effect to rescue or reverse the spontaneous calcium oscillations; effect of the drugs on the condition (spontaneous calcium oscillations) (RTT spheroids): made the condition worse
12 | CC1Nc2ccc(Cl)cc2S(=O)(=O)N1 (stereo not shown) [IDRA-21] | therapeutics of interest | –
13 | COc1cc(C(C)=O)ccc1OCCCN1CCC(c2noc3cc(F)ccc23)CC1 [Iloperidone] | therapeutics of interest | –
14 | Cc1nccn1CC1CCc2c(c3ccccc3n2C)C1=O (stereo not shown) [Ondansetron] | therapeutics of interest | –
15 | CC(C)COc1ccc(CNC(=O)N(Cc2ccc(F)cc2)C2CCN(C)CC2)cc1 [Pinmavanserin] | therapeutics of interest | –
16 | O=c1n(CCCN2CCN(c3cccc(Cl)c3)CC2)nc2ccccn12 [Trazodone, Trazodone (Beneficat)] | therapeutics of interest | –
17 | CCOC(=O)C1=C[C@]2(CC)CCCN3CCc4c(n1c1ccccc41)[C@@H]32 [Vinpocetine] | therapeutics of interest | –
18 | O=C(CCCCCCC(=O)Nc1ccccc1)NO [Vorinostat] | – | rescue or reversal of the RTT disease state, multi parametric plot of spheroid calcium oscillation activity (RTT spheroids; RTT spheroids): no effect to rescue or reverse the spontaneous calcium oscillations; effect of the drugs on the condition (spontaneous calcium oscillations) (RTT spheroids): made the condition worse
19 | O=C1CCC(N2C(=O)c3ccccc3C2=O)C(=O)N1 (stereo not shown) [thalidomide] | – | birth defects (pregnant rats): does not cause birth defects; birth defects (pregnant mice): does not cause birth defects; birth defects (humans): caused an international epidemic of birth defects
